# Measured values from US20250262229A1, “APPLICATION OF PHD2 INHIBITOR IN PREPARATION OF DRUGS FOR PREVENTION AND TREATMENT OF PLATELET THROMBUS” (Nankai University, priority 2024, published 2025).
# Tests used:
# PHD2 protein [1] = target: T1, PHD2 protein (Homo sapiens, UniProt Q9GZT9); experiment: Surface plasmon resonance (SPR) interaction analysis with PHD2; type: binding; conditions: Biacore T200, CM5 chip, 1.56 μM to 200 μM, read-out: dissociation constants KD with PHD2 protein
# Description: The interaction between these active natural products and recombinant human PHD2 protein is analyzed by surface plasmon resonance (SPR) technique using a Biacore™ T200 surface plasmon resonance analyzer from GE healthcare. The CM5 chip is selected, the purified PHD2 protein is immobilized on the channel of the chip, and the active natural product solution as a mobile phase is flowed through the chip, with the concentration ranging from 1.56 μM to 200 μM. The flow rate of mobile phase is 30 μL/min, and the dissociation is monitored for 150 seconds.
# [2] = test system: soft tissue injury in rats; experiment: Blood microcirculation disorder induced by acute soft tissue injury in rats; type: in vivo, SD rats; conditions: N-acetylcysteine 70 mg/kg/d i.p., ginsenoside CK 25 and 12.5 mg/kg/d i.p., vs model group; for whole blood viscosity: low, medium and high shear rate
# Description: SD male rats are taken and randomly divided into a blank control group, a model group, a positive control group (N-acetylcysteine, intraperitoneally injected at 70 milligrams per kilogram per day abbreviated as mg/kg/d), and high and low dose ginsenoside CK groups (intraperitoneally injected at 25 mg/kg/d and 12.5 mg/kg/d). The blank control group and the model group are given the same volume of sterile drinking water in the same manner. The molding is investigated three days after pre-administration. The rats are first anesthetized with 1% pentobarbital sodium (40 mg/kg), and the hair of the right buttocks and posterior thighs of the anesthetized rats are removed and fixed on the plate of an acute soft tissue injury modeling device. A 100 g weight is selected to impact the lateral aspect of the mid-right calf with five free-falls from a height of 100 centimeters (cm) causing soft tissue injury. The rats with successful modeling are continued to be administered for 4 days, and 1 hour after the last administration, the rats are anesthetized, blood is collected from the abdominal aorta with a blood viscometer to detect the viscosity of whole blood of the rats with high shear rate [200 s], medium shear rate [30 s], low shear rate [3 s], and low shear rate [1 s]. Coagulation parameters, such as erythrocyte aggregation index, erythrocyte packed-cell volume, platelet number and mean platelet volume, are determined by using a blood cell analyzer.
# PHD2 protein [3] = target: T1, PHD2 protein; experiment: PHD2 enzyme activity, 2-oxogalarate-phenylenediamine method; type: biochemical; design: purchased Abcam ab132273
# Description: 1 micromole per liter (μM) PHD2 inhibitor is incubated with 100 micrograms per milliliter (μg/mL) PHD2 protein (Abcam, Cat. No. ab132273) at 4° C. for 8 hours, and its inhibitory effect on PHD2 enzyme activity is determined according to the 2-oxogalarate-phenylenediamine method.
# 100 μL of PHD2 enzyme solution incubated with the PHD2 inhibitor is taken and 100 μL of reaction substrate (300 μM of 2-oxogalarate, 150 μM of Fe^2+) is added, followed by 100 μL of 0.5 moles (M) of hydrogen chloride (HCl) and 10 mg/mL of o-phenylenediamine, and the reaction is carried out at 95° C. for 15 minutes after mixing, so as to obtain a reaction product. The reaction product is centrifuged to taken the supernatant, 10 μL of 1.25 M of sodium hydroxide (NaOH) is added to terminate the reaction, and the fluorescence value of the reaction is determined using 340 nanometers (nm) excitation at the emission wavelength of 420 nm, the results are shown in FIG. 3B.
# SD rat platelets [4] = experiment: Platelet adhesion to collagen on glass slides, fluorescence imaging analysis; type: cell-based; conditions: IOX2 0.1 μM, 1 μM, 10 μM incubated with 100 μg/mL PHD2 protein; 10 μg/mL type I collagen
# Description: Different doses of PHD2 inhibitor IOX2 (0.1 μM, 1 μM, 10 μM) are taken and incubated with 100 μg/mL PHD2 protein at 4° C. for 8 hours, then 10 μg/mL type I collagen is mixed with the above solution and added dropwise to glass slides, and incubated at 4° C. overnight. SD rat platelets (2×10^7 cells/mL) are then inoculated on the glass slides and incubated at 37° C. for 90 minutes. After being fully washed by PBS, the fixed platelets are stained with Calcein-AM dye, fluorescence imaging analysis is performed using fluorescence microscope (Leica TCS SP8, Germany), and statistical analysis is performed on platelets with collagen adhesion using Image J software. The results are shown as in FIG. 5A.
# SD rat platelets [5] = experiment: Collagen-platelet adhesion assay; type: cell-based; conditions: 1 μM IOX2-treated PHD2 protein, 10 μg/mL type I collagen
# Description: (§1) The binding of platelets to collagen occurs mainly through VWF as a junction. PHD2 promotes the hydroxylation of collagen to form a three-dimensional structure to better bind to VWF. To verify the above principle, 10 μg/mL type I collagen is mixed with 1 μM IOX2-treated PHD2 protein and inoculated into a black 96-well plate, incubated at 4° C. overnight. Parallel triplicates, for the first one, SD rat platelets (2×10^7 cells/mL) are added and incubated at 37° C. for 90 minutes, after full washing with PBS, the fixed platelets are stained with Calcein-AM dye. For the second one, the primary antibody of VWF (Beijing Boaosen Biology technology Co., LTD., bs-20428R) is incubated at 4° C. overnight, after the excess primary antibody is washed away by PBS, the fluorescent secondary antibody (Abcam, ab150077) is incubated at 37° C. for 1 hour, and the excess secondary antibody is washed away. For the third one, SD rat plasma is added, incubated at room temperature for 4 hours, and then SD rat platelets (2×10^7 cells/mL) are added, incubated at 37° C. for 90 minutes, after full washing with PBS, the fixed platelets are stained with Calcein-AM dye. The fluorescence values of respective groups are measured by a multifunctional microplate reader at the excitation wavelength of 488 nm and the emission wavelength of 525 nm.
# binding of collagen-VWF = experiment: Collagen-VWF binding assay; conditions: 1 μM IOX2-treated PHD2 protein, 10 μg/mL type I collagen; VWF antibody detection
# Description: as §1
# SD rat platelets [6] = experiment: Collagen-VWF-platelet adhesion assay; type: cell-based; conditions: 1 μM IOX2-treated PHD2 protein, 10 μg/mL type I collagen; SD rat plasma then platelets
# Description: as §1
# [7] = test system: LPS-induced DIC model in mice; experiment: LPS-induced disseminated intravascular coagulation (DIC) model in mice; type: in vivo; conditions: aspirin 10 mg/kg taken orally, Daprodustat 10 mg/kg intraperitoneal injection
# Description: The sh-PHD2 mice and sh-ctrl blank mice are randomly divided into a blank group and a model group, with 6 mice in each group. The model group is injected intraperitoneally with 10 milligrams per kilogram (mg/kg) lipopolysaccharide abbreviated as LPS (Beijing Solarbio Science & Technology Co., Ltd., Cat. No. L8880) to induce the mice to establish a disseminated intravascular coagulation (DIC) model, and the blank group is injected intraperitoneally with the corresponding volume of physiological saline. After 2 hours, the mice are anesthetized by intraperitoneal injection of 1% pentobarbital sodium (40 mg/kg), and the tail is cut at a site of 3 millimeters (mm) from the tip of the tail of each mouse, and the tail is placed vertically in 37° C. physiological saline immediately after the first drop of blood is sucked up on filter paper to record the tail bleeding time.
# In addition to the blank group, the other groups use the method of the embodiment 1 to prepare the LPS-induced DIC model in mice, and the administration group is given drug intervention 1 hour before modeling.
# [8] = test system: Pseudomonas aeruginosa infected mice; experiment: Blood coagulation function in mice infected with Pseudomonas aeruginosa; type: in vivo, ICR (CD-1) mice; conditions: plasma 24 hours after infection; polydatin 10, 20, 40 mg/kg i.p.; aspirin 30 mg/kg gavage; Daprodustat 15 mg/kg i.p.; vs model group
# Description: ICR (CD-1) male mice are taken and randomly divided into 7 groups (6 mice in each group), which are a blank control group, a model group, an aspirin positive control group (gavage at 30 mg/kg), a Daprodustat-positive control group (intraperitoneally injected at 15 mg/kg), and low, medium and high doses of polydatin group (intraperitoneally injected at 10 mg/kg, 20 mg/kg, 40 mg/kg). Mice are anesthetized by intraperitoneal injection of 1% pentobarbital sodium (40 mg/kg). Activated Pseudomonas aeruginosa (1×10^7/20 μL) is added dropwise into the nasal cavity of mice in the model group and each administration group, and an equal amount of physiological saline is dropped into the blank control group. The respective groups are administered at 0 and 8 hours after molding, respectively. 24 hours after infection, plasma is obtained by blood sampling from mouse eyeballs, and four indexes of coagulation (prothrombin time, activated partial […] and fibrinogen) are measured by a semi-automatic coagulation analyzer.
# T1 sequence (Q9GZT9 whole entry): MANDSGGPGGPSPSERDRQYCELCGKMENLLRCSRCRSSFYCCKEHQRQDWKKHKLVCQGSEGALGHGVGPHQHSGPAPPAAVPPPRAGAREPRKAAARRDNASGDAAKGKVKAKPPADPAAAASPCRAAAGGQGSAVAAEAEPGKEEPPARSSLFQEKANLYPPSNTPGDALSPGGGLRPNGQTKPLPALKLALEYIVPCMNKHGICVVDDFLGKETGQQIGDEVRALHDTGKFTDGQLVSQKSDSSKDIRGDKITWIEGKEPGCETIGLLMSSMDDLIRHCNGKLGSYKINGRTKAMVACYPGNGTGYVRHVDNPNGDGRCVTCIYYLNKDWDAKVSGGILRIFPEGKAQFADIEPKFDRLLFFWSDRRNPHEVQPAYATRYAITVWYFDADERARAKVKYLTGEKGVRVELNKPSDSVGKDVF
smiles,measurement,setting,value
CC(C)=CCC[C@](C)(O[C@@H]1O[C@H](CO)[C@@H](O)[C@H](O)[C@H]1O)[C@H]1CC[C@]2(C)[C@@H]1[C@H](O)C[C@@H]1[C@@]3(C)CC[C@H](O)C(C)(C)[C@@H]3CC[C@]12C [ginsenoside CK],Kd,PHD2 protein [1],18 µM
same,erythrocyte aggregation index,[2],significantly reduce
same,erythrocyte packed-cell volume,[2],significantly reduce
same,mean platelet volume,[2],improved
same,platelet number,[2],significantly reduce
same,whole blood viscosity,[2],improved to a certain extent
same,inhibition of PHD2 enzyme activity,"PHD2 protein [3]; ginsenoside CK at 0.5 μM, 5 μM, 50 μM",inhibit the PHD2 enzyme activity in a concentration gradient
"CC(=O)N[C@@H](CS)C(=O)O [N-acetylcysteine, reference compound]",erythrocyte aggregation index,[2],significantly reduce
same,erythrocyte packed-cell volume,[2],significantly reduce
same,mean platelet volume,[2],improved
same,platelet number,[2],significantly reduce
same,whole blood viscosity,[2],improved to a certain extent
"O=C(O)CNC(=O)c1c(O)c2ccccc2n(Cc2ccccc2)c1=O [IOX2, N-[[1,2-dihydro-4-hydroxy-2-oxo-1-(phenylmethyl)-3-quinolinyl]carbonyl]-glycine]",platelet adhesion to collagen (fluorescence imaging),SD rat platelets [4],inhibits platelet adhesion to collagen in a concentration-dependent manner
same,PHD2-mediated collagen-platelet adhesion,SD rat platelets [5],significantly reduces the occurrence of PHD2-mediated platelet adhesion
same,binding of collagen-VWF,binding of collagen-VWF,affecting the binding of collagen-VWF
same,collagen-VWF-platelet adhesion,SD rat platelets [6],blocking the binding of collagen-VWF-platelet adhesion
CC(=O)Oc1ccccc1C(=O)O [aspirin],"pulmonary thrombi, Masson staining of lung tissues",[7],significantly inhibit the formation of thrombus
same,tail bleeding time,[7]; vs LPS group,significantly increase
same,tail bleeding volume,[7]; vs LPS group,significantly increase
OC[C@H]1O[C@@H](Oc2cc(O)cc(/C=C/c3ccc(O)cc3)c2)[C@H](O)[C@@H](O)[C@@H]1O [polydatin],Kd,PHD2 protein [1],23.5 µM
same,activated partial thrombin time,[8],significantly prolong
same,fibrinogen content in blood,[8],reduced
same,prothrombin time,[8],significantly prolong
same,thrombin time,[8],significantly prolong
same,inhibition of PHD2 enzyme activity,"PHD2 protein [3]; polydatin at 0.1 μM, 1 μM, 10 μM",inhibit the PHD2 enzyme activity in a concentration gradient
